# Reference: US20100273694A1, “SURFACTANT COMPOSITION METHOD FOR PRODUCTION THEREOF AND COSMETIC COMPRISING SAID COMPOSITION” (EIFFAGE TRAVAUX PUBLICS, priority 2004, published 2010)
# Assay: Measurement of surface tension and critical micellar concentrations (rising drop tensiometer)
# Type: physicochemical
# Conditions: rising drop method; for CMC: critical micellar concentration; for γcmc: surface tension at the CMC
# Description: The tensiometric measurements were carried out with a drop tensiometer operating by the method of the rising drop ([…] tensiometer, I.T. CONCEPT).
CMC,γcmc [mN/m],Compound
1.10^−4 M,36.6,9-octadecenyl betaine mesylate [Esters C18:1]
0.008 M,30.0,"CCCCCCCCCCCCOS(=O)(=O)[O-].[Na+] [SDS (C12), sodium dodecyl sulphate, reference compound]"
0.00014 M,36.0,betainylaminooctadecane mesylate [Amides C18:0]
0.00012 M,36.2,betainylaminooctadecenyl mesylate [Amides C18:1]
8.10^−4 M,37.2,octadecyl betaine mesylate [Esters C18:0]
